According to the NIST ThermoML archive (doi:10.1016/j.jct.2004.06.004):

Legend:
[1] = Liquid; for mass density: 101.33 kPa; for viscosity: 101.3 kPa
[2] = xn = mol fraction of the nth substance listed; settings: 101.3 kPa, Liquid

NCCO [2-aminoethan-1-ol]
Settings | mass density [kg/m3]
[1], 293.15 K, Pycnometric method | 1012.1

[1]
Settings | viscosity [mPa·s]
298.15 K | 18.91
303.15 K | 14.71
308.15 K | 11.82
313.15 K | 9.27
318.15 K | 7.52
323.15 K | 6.21

NCCO [2-aminoethan-1-ol] + O
viscosity [mPa·s], [2]
Settings | x1 = 0.03219 | x1 = 0.06969 | x1 = 0.1138 | x1 = 0.1666 | x1 = 0.2306 | x1 = 0.3102 | x1 = 0.4116 | x1 = 0.5452 | x1 = 0.7296 | x1 = 1
303.15 K | 1.081 | 1.448 | 2.041 | 2.93 | 4.28 | 6.27 | 9.25 | 12.42 | 14.56 | 14.71
308.15 K | 0.962 | 1.282 | 1.784 | 2.513 | 3.61 | 5.23 | 7.3 | 9.75 | 11.62 | 11.82
313.15 K | 0.865 | 1.149 | 1.536 | 2.085 | 2.932 | 4.23 | 5.88 | 7.82 | 9.26 | 9.27
318.15 K | 0.779 | 1.01 | 1.345 | 1.786 | 2.472 | 3.51 | 4.92 | 6.53 | 7.57 | 7.52
323.15 K | 0.703 | 0.907 | 1.173 | 1.553 | 2.125 | 2.925 | 3.95 | 5.24 | 6.06 | 6.21

CCOCCO [2-ethoxyethan-1-ol]
[1]
Settings | mass density [kg/m3] | viscosity [mPa·s]
293.15 K | 929.7 | 2.077
303.15 K | – | 1.612
308.15 K | – | 1.413
313.15 K | – | 1.24
318.15 K | – | 1.166
323.15 K | – | 1.026

CCOCCO [2-ethoxyethan-1-ol] + O
viscosity [mPa·s], [2]
Settings | x1 = 0.0201 | x1 = 0.04419 | x1 = 0.07339 | x1 = 0.1098 | x1 = 0.1561 | x1 = 0.2172 | x1 = 0.3015 | x1 = 0.4252 | x1 = 0.6247 | x1 = 1
303.15 K | 1.046 | 1.384 | 1.709 | 2.135 | 2.516 | 2.711 | 2.858 | 2.747 | 2.266 | 1.612
308.15 K | 0.924 | 1.177 | 1.472 | 1.769 | 2.057 | 2.248 | 2.329 | 2.2 | 1.951 | 1.413
313.15 K | 0.814 | 1.008 | 1.238 | 1.499 | 1.711 | 1.864 | 1.947 | 1.867 | 1.676 | 1.24
318.15 K | 0.71 | 0.898 | 1.108 | 1.322 | 1.521 | 1.663 | 1.723 | 1.632 | 1.516 | 1.166
323.15 K | 0.651 | 0.791 | 0.958 | 1.164 | 1.339 | 1.45 | 1.55 | 1.486 | 1.361 | 1.026
